# Test results from US20240116897A1, “BENZOTHIAZOLE AND BENZIMIDAZOLE DERIVATIVES, PHARMACEUTICALLY ACCEPTABLE SALT THEREOF, PREPARATION METHOD THEREFOR, AND PHARMACEUTICAL COMPOSITION COMPRISING SAME AS ACTIVE INGREDIENT” (KOREA RESEARCH INSTITUTE OF CHEMICAL TECHNOLOGY, priority 2021, published 2024).
# Like-named read-outs stand apart in the source and are kept apart here.
# How the values were obtained:
# WI38 cells = conditions: human, 48 h
# Method: (§2) LDH released is measured to determine whether a compound is toxic.
# (§3) Thermo's Cat. No. 88953 LDH Cytotoxicity assay kit was used. 20,000 cells were seeded in a 96 well plate and treated with 100 μM and 500 μM compounds after 24 hours of culture. After 48 hours, transfer 50 μL of the compound-treated culture supernatant to a new 96-well plate, add 50 μL of substrate mix buffer provided in the kit, block light, and react at room temperature for 30 minutes. After adding 50 μL of Stop solution, the absorbance was measured at 490 nm using a microplate reader (Molecular Device, spectramax i3).
# SW480 tumor xenograft = experiment: In vivo mouse tumor xenograft, SW480; conditions: nude mice, oral 10 mpk, 20 mpk, 40 mpk, 3 weeks
# Method: (§1) The compounds of the present invention were administered to mouse tumor xenograft to measure tumor suppression in vivo test. BALB/C-nu female 5-week-old mice were introduced. COLO32ODM and SW480 cells, which are human colorectal cancer cells, were isolated from culture flasks using trypsin and prepared at a concentration of 1×10^8 cell/ml. It was mixed with Matrigel (Gibco, Cat. No. A14133-02) at a ratio of 1:1 and injected 100 μL subcutaneously into the dorsal side of 5-week-old mice. After 2 weeks, when the volume of the mouse tumor reached 100 mm^3, oral administration of the compound was started 5 times a week. (Day 0), After that, it was conducted for 3 weeks.
# Dissolve the compound in 0.1% Carboxylmethyl cellulose (CMC) and 0.2% tween 80 solution at concentrations of 2 mg/ml, 4 mg/ml, and 8 mg/ml, and 100 ul was orally administered to achieve concentrations of 10 mpk, 20 mpk, and 40 mpk. In the negative control group, 0.1% Carboxylmethyl cellulose and 0.2% tween 80 solution were administered instead of the compound according to the same administration route and administration frequency. 6 mice were used for each experimental group (FIG. 3). The size of the tumor was measured in the long axis (length, L) and the short axis (width, W) once every 3 days, and the tumor volume (mm^3) was calculated as (L×W×W)/2 thereby the average for each group was calculated. […]
# [1] = system: COLO32ODM tumor xenograft; experiment: In vivo mouse tumor xenograft, COLO32ODM
# Method: as §1
# In the negative control group, 0.1% Carboxylmethyl cellulose and 0.2% tween 80 solution were administered instead of the compound according to the same administration route and administration frequency. 6 mice were used for each experimental group (FIG. 3). The size of the tumor was measured in the long axis (length, L) and the short axis (width, W) once every 3 days, and the tumor volume (mm^3) was calculated as (L×W×W)/2 thereby the average for each group was calculated. Statistical processing was performed using the GraphPad Prism6 program, and a p-value of less than 0.05 was considered significant.
# A 5-week-old nude mouse whose thymus was removed and whose T cells were reduced and whose immune system was suppressed was introduced, and human colorectal cancer cell lines, COLO32ODM and SW480, were subcutaneously injected.
# SIRT7 protein = biological target: T1, SIRT7 protein (Homo sapiens, UniProt Q9NRC8); experiment: SIRT Glo assay, inhibitory activity against Sirt7; assay type: biochemical; conditions: 10 μM compound
# T1 construct: purchased SignalChem S41-30H
# T1 sequence (Q9NRC8 1-400): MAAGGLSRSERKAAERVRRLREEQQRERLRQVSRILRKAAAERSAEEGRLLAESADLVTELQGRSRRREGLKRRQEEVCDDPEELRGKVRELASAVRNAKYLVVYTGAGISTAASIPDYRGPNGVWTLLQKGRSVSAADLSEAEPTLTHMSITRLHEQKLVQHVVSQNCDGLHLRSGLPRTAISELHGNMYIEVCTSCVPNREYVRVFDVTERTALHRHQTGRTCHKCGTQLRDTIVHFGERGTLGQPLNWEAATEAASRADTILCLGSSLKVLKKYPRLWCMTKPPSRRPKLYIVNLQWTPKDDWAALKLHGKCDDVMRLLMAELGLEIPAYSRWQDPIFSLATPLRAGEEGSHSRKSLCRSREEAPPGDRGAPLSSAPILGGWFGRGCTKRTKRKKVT
# Summary of the method: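 Recombinant SIRT7 (20 ng per well) pre-incubated 30 min with compound in SIRT Glo buffer, then SIRT Glo substrate added for 1 h before luminescence reading. Background-subtracted signal expressed as % inhibition relative to no-compound control.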
# COLO32ODM cells = experiment: LDH cytotoxicity test, cancer cell line; assay type: cell-based, human; conditions: 48 hours
# Method: as §2, §3
structure (smiles),measurement,setting,value
"CCNC(=O)N1CCN(Cc2ccc(C(=O)Nc3nc4ccccc4s3)cc2)CC1 [Compound 1-37, 4-(4-(benzo[d]thiazol-2-ylcarbamoyl)benzyl)-N-ethylpiperazine-1-carboxamide]",cytotoxicity (LDH release) compared to the positive control that damaged all cell membranes,WI38 cells; 100 μM,29.9%
same,cytotoxicity (LDH release) compared to the positive control that damaged all cell membranes,WI38 cells; 500 μM,41.6%
same,tumor size compared to the control group,SW480 tumor xenograft,reduced
same,tumor size compared to the control group,"[1]; nude mice, oral 10 mpk, 20 mpk, 40 mpk, 3 weeks",reduced
same,dose dependence of tumor formation inhibitory effect,"[1]; oral 10, 20, 40 mpk",concentration-dependent tumor formation inhibitory effect
same,tumor formation inhibitory effect,[1]; oral 40 mpk,most significant tumor formation inhibitory effect
same,inhibition at 10 µM,SIRT7 protein,81%
same,cytotoxicity (LDH release) compared to the positive control that damaged all cell membranes,COLO32ODM cells; 100 μM,62.1%
same,cytotoxicity (LDH release) compared to the positive control that damaged all cell membranes,COLO32ODM cells; 500 μM,62.0%
